Results taken from patent US9999614B2, “Combination for the prophylaxis and treatment of behavioural, mental, and cognitive disorders” (LTD “VALENTA-INTELLEKT”, priority 2012, dated 2018).

Key:
Assay type in all cases: in vivo
[1] = system: amnesia in mice, as caused by electroconvulsive shock (ECS); test: Conditioned passive avoidance reflex (CPAR), amnesia caused by electroconvulsive shock (ECS); settings: for Latent time of entering into the dark chamber / Number of mice not entered into the dark chamber, % / Number of mice taught to CPAR: + ECS, i.p. once a day for 5 days, Melatonin 5 mg, Memantin 10 mg mono-use; for Number of mice taught to CPAR: count of mice, human doses converted to mice; for Effect on the amnestic action of ECS (in words): summary of Tables 1-2, p<0.05 for the compositions
Description: (§1) For this, the active substances Melatonin 3 mg/Memantin 10 mg, Melatonin 5 mg/Memantin 20 mg, Melatonin 10 mg/Memantin 20 mg were taken, and doses recommended for human beings were converted into doses adapted for mice according to the formula “(active substance/70(average weight of a human being))×7”. Then the compositions were dissolved in 5 mL of the solution and, according to the given formula, introduced to animals intraperitoneally once a day for 5 days.
The action of the compositions on learning and memory factors were studied on white non-linear male mice having a weight 20+/−4 g, using the conditioned passive avoidance reflex (CPAR) of electroconvulsive shock (ECS) (Ya. Buresh et al., 1991; K. M. Dyumaev et al., 1995).
Electroconvulsive shock (ECS) was used as the amnesic action, the electric current parameters were: 50 Hz, 50 mA, 0.3 s, which was applied to mice with the use of electrodes in the shape of clips fixed on auricles, transpineally, just after teaching CPAR (see, “Manual for Experimental (Pre-Clinical) Studies of New Pharmacological Substances”, 2000). Pseudo-electroconvulsive shock was caused to the animals by applying pineal electrodes for causing ECS without applying electric current. The mice were tested for maintaining CPAR in certain time intervals after ECS.
(§2) The CPAR test is the main model for evaluating substance influences on formation and replication of short-time memory in a normal condition and in an abnormal condition, i.e., induced amnesia. The CPAR is the most informative method among the methods that are used today for evaluating efficiency of substances with influence on the CNS of mammals (see, “Manual for Experimental (Pre-Clinical) Studies of New Pharmacological Substances”, 2000). The CPAR (conditioned passive avoidance reflex in a dark, light chamber) was taught to the mice on the basis of electrodermal response according to the method proposed by Cumin et al. (1982) with due regard to the recommendations given by Mondadori et al. (1990). The installation for mice, as produced by Lafayette Instrument Co., USA, was a black chamber with the electrode floor and a white plastic platform that was arranged on the floor in the center of the chamber. The mice, one by one, were put onto the plastic platform. The animals went/jumped down onto the electrode floor where they received an electric current shock, i.e., punishment. Electric current was supplied after the time when an animal stood on the floor with all its four legs. The natural response of the animals is to go back to the current-free or safe platform. After several minutes of teaching, 5 minutes on the average, mice developed CPAR and remained on the safe platform. Tests for memorizing CPAR were conducted in successive time intervals after amnesic action. In a case where an animal went/jumped down onto the platform within 1 minute, it was recorded as having retrograde amnesia of the passive avoidance skill. The compositions were studied in comparison with Melatonin 5 mg (mono-use) and Memantin 10 mg (mono-use), according to the above formula for adapting to animal models.

[2] = system: amnesia in mice, as caused by scopolamine; test: CPAR, model of amnesia caused by scopolamine; settings: for Latent time of entering into the dark chamber / Number of mice not entered into the dark chamber, % / Number of mice taught to CPAR (%): scopolamine 1 mg/kg i.p., Melatonin 5 mg, Memantin 10 mg mono-use; for Number of mice taught to CPAR (%): agents i.p. once a day for 5 days; for Effect on scopolamine amnesia of the skill (in words): summary of Tables 3-4
Description: as §1
The CPAR test is the main model for evaluating substance influences on formation and replication of short-time memory in a normal condition and in an abnormal condition, i.e., induced amnesia. The CPAR is the most informative method among the methods that are used today for evaluating efficiency of substances with influence on the CNS of mammals (see, “Manual for Experimental (Pre-Clinical) Studies of New Pharmacological Substances”, 2000). The CPAR (conditioned passive avoidance reflex in a dark, light chamber) was taught to the mice on the basis of electrodermal response according to the method proposed by Cumin et al. (1982) with due regard to the recommendations given by Mondadori et al. (1990). The installation for mice, as produced by Lafayette Instrument Co., USA, was a black chamber with the electrode floor and a white plastic platform that was arranged on the floor in the center of the chamber. The mice, one by one, were put onto the plastic platform. The animals went/jumped down onto the electrode floor where they received an electric current shock, i.e., punishment. Electric current was supplied after the time when an animal stood on the floor with all its four legs. The natural response of the animals is to go back to the current-free or safe platform. […] Tests for memorizing CPAR were conducted in successive time intervals after amnesic action. In a case where an animal went/jumped down onto the platform within 1 minute, it was recorded as having retrograde amnesia of the passive avoidance skill. The compositions were studied in comparison with Melatonin 5 mg (mono-use) and Memantin 10 mg (mono-use), according to the above formula for adapting to animal models.
The compositions under study were dissolved in 5 mL of the solution and, according to the above formula, introduced to the animals intraperitoneally, once a day for 5 days.

[3] = system: amnestic effect caused by mice swimming in cold water, simultaneously rotating wheel to the point of exhaustion; test: CPAR, amnesia induced by swimming in cold water with wheel rotation to the point of exhaustion; settings: Melatonin 5 mg, Memantin 10 mg mono-use
Description: as §1, §2
The antiamnestic action of the compositions on the amnesia model induced by swimming of mice in cold water with wheel rotation to the point of exhaustion. Studies were conducted on white non-linear male mice having a weight of 20-24 g with developing CPAR in the animals as in the previous studies. The animals were put, one by one, into a container filled with water and equipped with a rotating wheel. After teaching CPAR, the mice swam in cold water, simultaneously rotating the wheel to the point of exhaustion. The CPAR maintenance was checked in successive time intervals. As false imitation of swimming in cold water, mice were put onto a pad consisting of wet cold wadding. The substances and an isotonic solution of sodium chloride (control) were studied in comparison with Melatonin 5 mg (mono-use) and Memantin 10 mg (mono-use), in accordance with the above formula for adapting to animal models, by intraperitoneal introduction before teaching mice, once a day for 5 days.

Compound	Latent time of entering into the dark chamber ([1]; 1 day after teaching)	Number of mice not entered into the dark chamber, % ([1]; 1 day after teaching)	Latent time of entering into the dark chamber ([1]; 3 days after teaching)	Number of mice not entered into the dark chamber, % ([1]; 3 days after teaching)	Latent time of entering into the dark chamber ([1]; 7 days after teaching)	Number of mice not entered into the dark chamber, % ([1]; 7 days after teaching)	Latent time of entering into the dark chamber ([1]; 10 days after teaching)	Number of mice not entered into the dark chamber, % ([1]; 10 days after teaching)	Number of mice taught to CPAR [1]	Effect on the amnestic action of ECS (in words) [1]	Latent time of entering into the dark chamber ([2]; 1 day after teaching)	Number of mice not entered into the dark chamber, % ([2]; 1 day after teaching)	Latent time of entering into the dark chamber ([2]; 3 days after teaching)	Number of mice not entered into the dark chamber, % ([2]; 3 days after teaching)	Latent time of entering into the dark chamber ([2]; 7 days after teaching)	Number of mice not entered into the dark chamber, % ([2]; 7 days after teaching)	Latent time of entering into the dark chamber ([2]; 10 days after teaching)	Number of mice not entered into the dark chamber, % ([2]; 10 days after teaching)	Number of mice taught to CPAR (%) [2]	Effect on scopolamine amnesia of the skill (in words) [2]	other results
COc1ccc2[nH]cc(CCNC(C)=O)c2c1 [Melatonin, N-acetyl-5-methoxytriptamine]	108.3 ± 21.7 s	66.7%	105.6 ± 17.4 s	58.3%	103.3 ± 21.2 s	58.3%	103.2 ± 20.6 s	33.3%	9	changed the amnestic action	111.3 ± 15.7 s	58.3%	107.4 ± 21.2 s	54.5%	105.8 ± 17.4 s	45.4%	101.2 ± 20.6 s	36.3%	66.7%	influenced on amnesia of the skill obtained, but insignificantly	Latent time of entering into the dark chamber ([3]; 1 day after teaching): 109.3 ± 9.8 s; Number of mice not entered into the dark chamber, % ([3]; 1 day after teaching): 61.5%; Latent time of entering into the dark chamber ([3]; 3 days after teaching): 105.4 ± 13.5 s; Number of mice not entered into the dark chamber, % ([3]; 3 days after teaching): 46.1%; Latent time of entering into the dark chamber ([3]; 7 days after teaching): 104.6 ± 15.1 s; Number of mice not entered into the dark chamber, % ([3]; 7 days after teaching): 38.5%; Latent time of entering into the dark chamber ([3]; 10 days after teaching): 100.9 ± 17.4 s; Number of mice not entered into the dark chamber, % ([3]; 10 days after teaching): 30.7%
CC12CC3CC(C)(C1)CC(N)(C3)C2 [Memantin]	104.6 ± 19.2 s	36.3%	109.5 ± 22.1 s	54.5%	110.1 ± 18.9 s	63.6%	109.8 ± 21.1 s	63.6%	8	changed the amnestic action	110.8 ± 25.8 s	50%	114.4 ± 18.2 s	60%	111.1 ± 21.2 s	40%	108.6 ± 18.7 s	40%	70%	influenced on amnesia of the skill obtained, but insignificantly	Latent time of entering into the dark chamber ([3]; 1 day after teaching): 111.3 ± 22.3 s; Number of mice not entered into the dark chamber, % ([3]; 1 day after teaching): 41.6%; Latent time of entering into the dark chamber ([3]; 3 days after teaching): 115.9 ± 16.5 s; Number of mice not entered into the dark chamber, % ([3]; 3 days after teaching): 50%; Latent time of entering into the dark chamber ([3]; 7 days after teaching): 117.4 ± 28.1 s; Number of mice not entered into the dark chamber, % ([3]; 7 days after teaching): 66.6%; Latent time of entering into the dark chamber ([3]; 10 days after teaching): 118.0 ± 23.3 s; Number of mice not entered into the dark chamber, % ([3]; 10 days after teaching): 66.6%
